Laboratory results published in ChEMBL document CHEMBL4393656, “Cationic biaryl 1,2,3-triazolyl peptidomimetic amphiphiles targeting Clostridioides (Clostridium) difficile: Synthesis, antibacterial evaluation and an in vivo C. difficile infection model” (Eur J Med Chem, 2019).

How the values were obtained:
Klebsiella pneumoniae = experiment: Growth inhibition of Klebsiella pneumoniae ATCC 700603 incubated for 18 hrs; type: organism-based
Pseudomonas aeruginosa = experiment: Growth inhibition of Pseudomonas aeruginosa ATCC 27853 incubated for 18 hrs; type: organism-based
Clostridioides difficile [1] = experiment: Antibacterial activity against Clostridium difficile ATCC 700057 incubated for 2 to 4 hrs in pre-reduced brucella broth supplemented with haemin/vitamin K and further incubation in anaerobic condition for 48 hrs; type: functional
Escherichia coli = experiment: Growth inhibition of Escherichia coli ATCC 25922 incubated for 18 hrs; type: organism-based
Acinetobacter baumannii = experiment: Growth inhibition of Acinetobacter baumannii ATCC 19606 incubated for 18 hrs without shaking by absorbance based monochromator plate reader analysis; type: organism-based, ATCC 19606 = CIP 70.34 = JCM 6841; conditions: in vitro
Streptococcus pneumoniae = experiment: Growth inhibition of Streptococcus pneumoniae ATCC 49619 incubated in MHB medium with lysed horse blood and 5% CO2 for 24 hrs; type: organism-based
Staphylococcus aureus [2] = experiment: Growth inhibition of Staphylococcus aureus ATCC 29213 incubated in MHB broth for 24 hrs; type: organism-based
[3] = Cytotoxicity against HEK293 cells assessed as decrease in cell viability after 20 hrs by resazurin dye-based fluorescence assay; conditions: human
Clostridioides difficile [4] = experiment: Antibacterial activity against Clostridium difficile NSW132 RT027 incubated for 2 to 4 hrs in pre-reduced brucella broth supplemented with haemin/vitamin K and further incubation in anaerobic condition for 48 hrs; type: functional
Staphylococcus aureus [5] = experiment: Growth inhibition of methicillin-resistant Staphylococcus aureus ATCC 43300 incubated for 18 hrs; type: organism-based
Enterococcus faecalis = experiment: Growth inhibition of Enterococcus faecalis ATCC 29212 incubated in MHB broth for 24 hrs; type: organism-based

Row | Molecule | MIC (Klebsiella pneumoniae) | MIC (Pseudomonas aeruginosa) | MIC (Clostridioides difficile [1]) | MIC (Escherichia coli) | MIC (Acinetobacter baumannii) | MIC (Streptococcus pneumoniae) | MIC (Staphylococcus aureus [2]) | CC50 at 20 h [3] | MIC (Clostridioides difficile [4]) | MIC (Staphylococcus aureus [5]) | MIC (Enterococcus faecalis)
1 | CC(C)CCOc1ccccc1-c1ccccc1OCc1cn([C@H](CCCNC(=N)N)C(=O)Nc2ccccc2)nn1.Cl | > 32 µg/mL | > 32 µg/mL | 16 µg/mL | > 32 µg/mL | > 32 µg/mL | 2 µg/mL | 2 µg/mL | 21.6 µg/mL | 32 µg/mL | 8 µg/mL | 2 µg/mL
2 | CC(C)CCOc1ccc2ccccc2c1-c1c(OCc2cn([C@H](CCCNC(=N)N)C(=O)N[C@H](CCCCN)Cn3cc(CCc4ccccc4)nn3)nn2)ccc2ccccc12.Cl.Cl | > 32 µg/mL | 32 µg/mL | 16 µg/mL | > 32 µg/mL | 32 µg/mL | 2 µg/mL | 4 µg/mL | > 32 µg/mL | 16 µg/mL | 4 µg/mL | 4 µg/mL
3 | CC(C)CCOc1ccccc1-c1ccccc1OCc1cn([C@H](CCCCN)C(=O)NC2CCCCC2)nn1.Cl | > 32 µg/mL | 32 µg/mL | 16 µg/mL | > 32 µg/mL | 32 µg/mL | 8 µg/mL | 8 µg/mL | > 32 µg/mL | 32 µg/mL | 8 µg/mL | 16 µg/mL
4 | CC(C)CCOc1ccccc1-c1ccccc1OCc1cn([C@H](CCCNC(=N)N)C(=O)NC2CC2)nn1.Cl | > 32 µg/mL | > 32 µg/mL | 64 µg/mL | > 32 µg/mL | > 32 µg/mL | 8 µg/mL | 16 µg/mL | 20 µg/mL | 128 µg/mL |  | 32 µg/mL
5 | CC(C)CCOc1ccccc1-c1ccccc1OCc1cn([C@H](CCCCN)C(=O)N[C@H](CCCNC(=N)N)Cn2cc(Cc3ccccc3)nn2)nn1.Cl.Cl | 32 µg/mL | 16 µg/mL | 8 µg/mL | 8 µg/mL | 16 µg/mL | 4 µg/mL | 4 µg/mL | 17.1 µg/mL | 16 µg/mL | 4 µg/mL | 8 µg/mL
6 | CC(C)CCOc1ccccc1-c1ccccc1OCc1cn([C@H](CCCNC(=N)N)C(=O)NCCc2ccccc2)nn1.Cl | > 32 µg/mL | > 32 µg/mL | 8 µg/mL | > 32 µg/mL | 32 µg/mL | 4 µg/mL | 2 µg/mL | 17.9 µg/mL | 32 µg/mL | 8 µg/mL | 4 µg/mL
7 | CC(C)CCOc1ccccc1-c1ccccc1OCc1cn([C@H](CCCCN)C(=O)NCc2ccc(C(F)(F)F)cc2)nn1.Cl | > 32 µg/mL | > 32 µg/mL | 32 µg/mL | > 32 µg/mL | 32 µg/mL | 8 µg/mL | 4 µg/mL | > 32 µg/mL | 32 µg/mL | 8 µg/mL | 4 µg/mL
8 | CC(C)CCOc1ccc2ccccc2c1-c1c(OCc2cn([C@H](CCCCN)C(=O)N[C@H](CCCNC(=N)N)Cn3cc(CC4CCCCC4)nn3)nn2)ccc2ccccc12.Cl.Cl | > 32 µg/mL | 32 µg/mL | 16 µg/mL | > 32 µg/mL | 8 µg/mL | 4 µg/mL | 4 µg/mL | 16.6 µg/mL | 16 µg/mL | 2 µg/mL | 4 µg/mL
9 | COc1cc(NC(=O)[C@@H](CCCNC(=N)N)n2cc(COc3ccccc3-c3ccccc3OCCC(C)C)nn2)cc(OC)c1.Cl | > 32 µg/mL | > 32 µg/mL | 32 µg/mL | > 32 µg/mL | > 32 µg/mL | 4 µg/mL | 4 µg/mL | 12.2 µg/mL | 32 µg/mL | 8 µg/mL | 4 µg/mL
10 | CC(C)CCOc1ccccc1-c1ccccc1OCc1cn([C@H](CCCNC(=N)N)C(=O)NCC2CCCCC2)nn1.Cl | > 32 µg/mL | > 32 µg/mL | 32 µg/mL | > 32 µg/mL | > 32 µg/mL | 8 µg/mL | 4 µg/mL | 16.9 µg/mL | 64 µg/mL | 4 µg/mL | 8 µg/mL
11 | CC(C)CCOc1ccccc1-c1ccccc1OCc1cn([C@H](CCCCN)C(=O)NCCc2ccccc2)nn1.Cl | > 32 µg/mL | > 32 µg/mL | 32 µg/mL | > 32 µg/mL | 32 µg/mL | 8 µg/mL | 8 µg/mL | > 32 µg/mL | 32 µg/mL | 8 µg/mL | 8 µg/mL
12 | CC(C)CCOc1ccccc1-c1ccccc1OCc1cn([C@H](CCCNC(=N)N)C(=O)NCCc2ccc(F)cc2)nn1.Cl | > 32 µg/mL | > 32 µg/mL | 64 µg/mL | > 32 µg/mL | > 32 µg/mL | 4 µg/mL | 4 µg/mL | 19.1 µg/mL | 64 µg/mL | 16 µg/mL | 4 µg/mL
13 | CC(C)CCOc1ccccc1-c1ccccc1OCc1cn([C@H](CCCNC(=N)N)C(=O)NCc2ccc(C(F)(F)F)cc2)nn1.Cl | > 32 µg/mL | > 32 µg/mL | 128 µg/mL | > 32 µg/mL | > 32 µg/mL | 32 µg/mL | 16 µg/mL | > 32 µg/mL | 128 µg/mL |  | 16 µg/mL
14 | CC(C)CCOc1ccc2ccccc2c1-c1c(OCc2cn([C@H](CCCCN)C(=O)N[C@H](CCCNC(=N)N)C(=O)NCCc3ccccc3)nn2)ccc2ccccc12.Cl.Cl | 16 µg/mL | 32 µg/mL | 16 µg/mL | > 32 µg/mL | 8 µg/mL | 8 µg/mL | 8 µg/mL | 15.2 µg/mL | 32 µg/mL | 2 µg/mL | 4 µg/mL
15 | CCCN(CC1CC1)C(=O)[C@@H](CCCNC(=N)N)n1cc(COc2ccccc2-c2ccccc2OCCC(C)C)nn1.Cl | > 32 µg/mL | > 32 µg/mL | 16 µg/mL | > 32 µg/mL | > 32 µg/mL | 2 µg/mL | 4 µg/mL | 19.7 µg/mL | 16 µg/mL | 8 µg/mL | 4 µg/mL
16 | CC(C)CCOc1ccccc1-c1ccccc1OCc1cn([C@H](CCCNC(=N)N)C(=O)N[C@H](CCCCN)Cn2cc(C3CCCCC3)nn2)nn1.Cl.Cl | 16 µg/mL | 8 µg/mL | 8 µg/mL | 16 µg/mL | 16 µg/mL | 2 µg/mL | 8 µg/mL | > 32 µg/mL | 16 µg/mL | 4 µg/mL | 8 µg/mL
17 | CC(C)CCOc1ccccc1-c1ccccc1OCc1cn([C@H](CCCCN)C(=O)N[C@H](CCCNC(=N)N)Cn2cc(C3CCCCC3)nn2)nn1.Cl.Cl | 16 µg/mL | 16 µg/mL | 64 µg/mL | 8 µg/mL | 8 µg/mL | 32 µg/mL | 16 µg/mL | 19.8 µg/mL | 128 µg/mL | 4 µg/mL | 16 µg/mL
18 | CC(C)CCOc1ccc2ccccc2c1-c1c(OCC(=O)N[C@H](CCCNC(=N)N)C(=O)NCCc2ccccc2)ccc2ccccc12.Cl | > 32 µg/mL | > 32 µg/mL | 32 µg/mL | > 32 µg/mL | > 32 µg/mL | 2 µg/mL | 2 µg/mL | > 32 µg/mL | 32 µg/mL | 4 µg/mL | 4 µg/mL
19 | CC(C)CCOc1ccccc1-c1ccccc1OCc1cn([C@H](CCCNC(=N)N)C(=O)NCc2cc(F)cc(F)c2)nn1.Cl | > 32 µg/mL | > 32 µg/mL | 32 µg/mL | > 32 µg/mL | > 32 µg/mL | 16 µg/mL | 8 µg/mL | 22.9 µg/mL | 32 µg/mL |  | 8 µg/mL
20 | CC(C)CCOc1ccccc1-c1ccccc1OCc1cn([C@H](CCCCN)C(=O)NCc2ccccc2)nn1.Cl | > 32 µg/mL | 32 µg/mL | 32 µg/mL | > 32 µg/mL | 32 µg/mL | 8 µg/mL | 8 µg/mL | > 32 µg/mL | 32 µg/mL |  | 16 µg/mL
21 | COLISTIN | 0.25 µg/mL | 0.25 µg/mL |  | 0.125 µg/mL | 0.25 µg/mL |  |  |  |  |  | 
